Measurements: article PMC5701137, “Discovery of novel choline acetyltransferase inhibitors using structure-based virtual screening” (Scientific Reports, 2017)

Assays:
plasma BuChE = biological target: T1, plasma BuChE (Homo sapiens, UniProt P06276); assay: Modified Ellman's colorimetric assay for BuChE (pooled human plasma) and kinetic studies; format: biochemical; conditions: 200 µM compound, compared to control, mean of three experiments in triplicate; for BuChE % IR (inhibition rate): 200 µM; for inhibition at 200 µM: read-out: BuChE % IR (inhibition rate)
T1 construct: 1:450 diluted solution of a pooled human plasma; from tissue; host or cells: pooled human plasma
Text: (§1) A modified version of Ellman’s colorimetric assay[16],[17] was adapted to a high throughput assay for the enzymatic activity of BuChE and AChE. The reagent, butyrylthiocholine iodide (BTC), acetylthiocholine iodide (ATC), 5,5′-dithiobis (2-nitrobenzoic acid) (DTNB) were purchased from Sigma-Aldrich (St. Louis, MO, USA). The modified assay details are as previously described[34],[35]. The main modification concerned with the high throughput adaptation of the assay for use in 384-well plates. Briefly, 25 μL/well of a 1:450 diluted solution of a pooled human plasma and 1:768 diluted (3.5 ng/ml final concentration) purified recombinant human AChE protein (Sigma, Cat no. C1682) was used for measurement of BuChE and AChE activity, respectively. In the initial in vitro screening step, the wells were pre-incubated with 25 μL/wells of different Asinex compounds for 10–30 minutes at room temperature. The concentration of the compounds working solution was 3X to give a final concentration of 200 μM in a final volume of 75 μL in each well. The stock concentration of the compounds were prepared in 100% DMSO. The stock concentration was chosen usually at 10 mM, allowing the final DMSO concentration in the wells to be less than 4%. Finally, 25 μL of a cocktail mix prepared in Na/K phosphate buffer, containing DTNB (final concentration 0.4 mM) and BTC, (final concentration 1 mM) or ATC (final concentration 0.5 mM) was added to each well and the changes in absorbance was monitored at 412 nm wavelength for 15–20 minutes with one-minute interval, using a microplate spectrophotometer reader (Infinite M1000, Tecan). The rate of the enzyme activity was determined from the linear part of the kinetic reaction curves as ∆OD/time.
(§2) For kinetic studies, a similar protocol as inhibition assay was followed; a dilution series of five different concentrations ranging from 10^−6 to 10^−9 M were prepared for each selected Asinex compounds. For ChAT, the A-CoA was kept constant at 10 μM (final) but the concentration of choline chloride varied between 320–10 μM. For BuChE, BTC was used as the substrate in the concentrations ranging from 0.0625 to 2 mM. For AChE, ATC was used as the substrate in the concentrations ranging from 0.0312 to 1 mM. Each compound concentration was measured in duplicates. The rate of enzyme activity (as ∆OD/hr kinetic data) was calculated and processed using the GraphPad Prism 7 analysis software. The inhibitory constant (Ki) values were determined from the dose-response curve and the half-maximal inhibitory concentration (IC50) values were calculated by plotting the percentage enzyme activity vs. the log of the Asinex compound concentrations and fitting the data using the nonlinear regression Enzyme Kinetics-Inhibition function.

recombinant human AChE = biological target: T2, recombinant human AChE (Homo sapiens, UniProt P22303); assay: Modified Ellman's colorimetric assay for AChE and kinetic studies; format: biochemical; conditions: 200 µM compound, compared to control, mean of three experiments in triplicate; for inhibition at 200 µM: read-out: AChE % IR (inhibition rate)
T2 construct: purchased Sigma C1682
Text: as §1, §2

T1 sequence (P06276 29-602): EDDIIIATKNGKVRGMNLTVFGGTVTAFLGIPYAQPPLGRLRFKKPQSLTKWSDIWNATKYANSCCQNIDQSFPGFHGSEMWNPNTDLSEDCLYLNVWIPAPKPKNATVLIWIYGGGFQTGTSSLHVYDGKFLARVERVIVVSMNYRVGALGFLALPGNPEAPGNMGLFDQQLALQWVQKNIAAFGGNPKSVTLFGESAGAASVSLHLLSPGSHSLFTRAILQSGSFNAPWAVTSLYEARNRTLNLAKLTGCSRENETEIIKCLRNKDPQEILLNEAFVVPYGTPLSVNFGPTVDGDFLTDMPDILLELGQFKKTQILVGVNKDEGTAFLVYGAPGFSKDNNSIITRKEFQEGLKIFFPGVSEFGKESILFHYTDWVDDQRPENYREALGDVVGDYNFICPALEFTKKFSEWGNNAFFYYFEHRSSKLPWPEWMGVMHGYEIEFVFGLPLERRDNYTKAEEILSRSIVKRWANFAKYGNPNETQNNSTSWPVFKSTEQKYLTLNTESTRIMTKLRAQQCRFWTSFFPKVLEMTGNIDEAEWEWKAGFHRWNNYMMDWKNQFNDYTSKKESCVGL
T2 sequence (P22303 32-614): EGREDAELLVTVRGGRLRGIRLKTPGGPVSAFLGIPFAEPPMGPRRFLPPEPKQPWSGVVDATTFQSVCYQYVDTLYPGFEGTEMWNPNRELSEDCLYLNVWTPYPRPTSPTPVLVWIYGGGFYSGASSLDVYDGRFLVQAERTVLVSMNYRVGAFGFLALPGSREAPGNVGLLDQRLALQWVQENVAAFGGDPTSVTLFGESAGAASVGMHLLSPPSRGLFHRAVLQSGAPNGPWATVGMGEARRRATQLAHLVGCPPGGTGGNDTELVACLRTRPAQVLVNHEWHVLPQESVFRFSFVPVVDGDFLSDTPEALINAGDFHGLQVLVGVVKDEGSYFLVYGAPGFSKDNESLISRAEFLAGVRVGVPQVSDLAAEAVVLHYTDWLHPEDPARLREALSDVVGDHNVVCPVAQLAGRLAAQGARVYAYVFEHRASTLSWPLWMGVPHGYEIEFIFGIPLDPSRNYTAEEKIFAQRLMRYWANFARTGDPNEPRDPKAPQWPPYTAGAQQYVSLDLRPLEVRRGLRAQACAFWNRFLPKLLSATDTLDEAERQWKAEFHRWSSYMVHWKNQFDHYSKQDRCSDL

| Compound | BuChE % IR (inhibition rate) (plasma BuChE) [%] | inhibition at 200 µM (plasma BuChE) [%] | inhibition at 200 µM (recombinant human AChE) [%] | AChE % IR (inhibition rate) (recombinant human AChE; 200 µM) [%] |
| --- | --- | --- | --- | --- |
| CC(C)NC(=O)C1CCN(C(=O)c2csc(Nc3cccc4ccccc34)n2)CC1 [Compound B4] | 22.1 | 22 | 0 | – |
| CC(C)c1ccc(C(=O)CSc2n[nH]c(-c3ccco3)n2)cc1 [Compound E1] | 17.2 | 17 | 12 | 12.4 |
